# Reference: the supplement of paper PMC10307832
# Assays:
# Assay in all cases: relative viability (nuclei count vs DMSO), 5 days (fraction); higher = more cells survive
# NCI-H520 = tested on: NCI-H520
# Outline: (§1)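 Lung cancer cell lines were pin-tool dosed in 1536-well plates on the day after seeding, with either a lone drug or a fixed anchor-drug dose plus five library-drug doses (not always all listed) in √10 steps. Nuclei were counted on 4× images after 5 days. Relative viability is the ratio of treated-well to vehicle-well nuclei counts, with each value a median of duplicate plates.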
# NCI-H661 = tested on: NCI-H661
# Outline: as §1
# H3255 = tested on: H3255
# Outline: as §1
# NCI-H1975 = tested on: NCI-H1975
# Outline: as §1
# NCI-H1944 = tested on: NCI-H1944
# Outline: as §1
# COR-L 105 = tested on: COR-L 105
# Outline: as §1
# SK-LU-1 = tested on: SK-LU-1
# Outline: as §1
# NCI-H1395 = tested on: NCI-H1395
# Outline: as §1
# NCI-H1734 = tested on: NCI-H1734
# Outline: as §1
# NCI-H1666 = tested on: NCI-H1666
# Outline: as §1
# CAL-12T = tested on: CAL-12T
# Outline: as §1
# NCI-H838 = tested on: NCI-H838
# Outline: as §1
# NCI-H647 = tested on: NCI-H647
# Outline: as §1
# NCI-H1563 = tested on: NCI-H1563
# Outline: as §1
# NCI-H2228 = tested on: NCI-H2228
# Outline: as §1
# PC-14 = tested on: PC-14
# Outline: as §1
# NCI-H3122 = tested on: NCI-H3122
# Outline: as §1
# PC-3 [JPC-3] = tested on: PC-3 [JPC-3]
# Outline: as §1
# HCC-366 = tested on: HCC-366
# Outline: as §1
# LC-2-ad = tested on: LC-2-ad
# Outline: as §1
# HARA = tested on: HARA
# Outline: as §1
# NCI-H1993 = tested on: NCI-H1993
# Outline: as §1
# LU99A = tested on: LU99A
# Outline: as §1
# HCC-15 = tested on: HCC-15
# Outline: as §1
structure (smiles),measurement,setting,value
CCCCCCCCCCCC1=C(O)C(=O)C=C(O)C1=O [Embelin] + CS(=O)(=O)CCNCc1ccc(-c2ccc3ncnc(Nc4ccc(OCc5cccc(F)c5)c(Cl)c4)c3c2)o1 [Lapatinib] (partner 2 µM),relative viability,NCI-H520; first compound 0.08 µM,0.946
same,relative viability,NCI-H520; first compound 0.8 µM,0.729
same,relative viability,NCI-H520; first compound 2.53 µM,0.936
same,relative viability,NCI-H520; first compound 8 µM,0.862
same,relative viability,NCI-H661; first compound 0.08 µM,0.467
same,relative viability,NCI-H661; first compound 0.8 µM,0.596
same,relative viability,NCI-H661; first compound 2.53 µM,0.545
same,relative viability,NCI-H661; first compound 8 µM,0.48
same,relative viability,H3255; first compound 0.08 µM,0.225
same,relative viability,H3255; first compound 0.8 µM,0.281
same,relative viability,H3255; first compound 2.53 µM,0.234
same,relative viability,H3255; first compound 8 µM,0.281
same,relative viability,NCI-H1975; first compound 0.08 µM,0.807
same,relative viability,NCI-H1975; first compound 0.8 µM,0.951
same,relative viability,NCI-H1975; first compound 2.53 µM,1.09
same,relative viability,NCI-H1975; first compound 8 µM,0.872
same,relative viability,NCI-H1944; first compound 0.08 µM,0.774
same,relative viability,NCI-H1944; first compound 0.8 µM,0.908
same,relative viability,NCI-H1944; first compound 2.53 µM,0.841
same,relative viability,NCI-H1944; first compound 8 µM,0.65
same,relative viability,COR-L 105; first compound 0.08 µM,0.356
same,relative viability,COR-L 105; first compound 0.8 µM,0.436
same,relative viability,COR-L 105; first compound 2.53 µM,0.384
same,relative viability,COR-L 105; first compound 8 µM,0.391
same,relative viability,SK-LU-1; first compound 0.08 µM,1
same,relative viability,SK-LU-1; first compound 0.8 µM,1.15
same,relative viability,SK-LU-1; first compound 2.53 µM,0.9
same,relative viability,SK-LU-1; first compound 8 µM,0.863
same,relative viability,NCI-H1395; first compound 0.08 µM,1.11
same,relative viability,NCI-H1395; first compound 0.8 µM,1.27
same,relative viability,NCI-H1395; first compound 2.53 µM,0.99
same,relative viability,NCI-H1395; first compound 8 µM,0.754
same,relative viability,NCI-H1734; first compound 0.08 µM,0.963
same,relative viability,NCI-H1734; first compound 0.8 µM,1.28
same,relative viability,NCI-H1734; first compound 2.53 µM,1.26
same,relative viability,NCI-H1734; first compound 8 µM,1.12
same,relative viability,NCI-H1666; first compound 0.08 µM,0.603
same,relative viability,NCI-H1666; first compound 0.8 µM,0.795
same,relative viability,NCI-H1666; first compound 2.53 µM,0.761
same,relative viability,NCI-H1666; first compound 8 µM,0.616
same,relative viability,CAL-12T; first compound 0.08 µM,0.757
same,relative viability,CAL-12T; first compound 0.8 µM,0.878
same,relative viability,CAL-12T; first compound 8 µM,0.703
same,relative viability,NCI-H838; first compound 0.08 µM,1.07
same,relative viability,NCI-H838; first compound 0.8 µM,1.31
same,relative viability,NCI-H838; first compound 2.53 µM,1.02
same,relative viability,NCI-H838; first compound 8 µM,1.14
same,relative viability,NCI-H647; first compound 0.08 µM,1.08
same,relative viability,NCI-H647; first compound 0.8 µM,1.38
same,relative viability,NCI-H647; first compound 2.53 µM,1.89
same,relative viability,NCI-H647; first compound 8 µM,1.17
same,relative viability,NCI-H1563; first compound 0.08 µM,0.869
same,relative viability,NCI-H1563; first compound 0.8 µM,1.11
same,relative viability,NCI-H1563; first compound 2.53 µM,0.838
same,relative viability,NCI-H1563; first compound 8 µM,0.839
same,relative viability,NCI-H2228; first compound 0.08 µM,1.36
same,relative viability,NCI-H2228; first compound 0.8 µM,1.1
same,relative viability,NCI-H2228; first compound 2.53 µM,1.41
same,relative viability,NCI-H2228; first compound 8 µM,1.08
same,relative viability,PC-14; first compound 0.08 µM,0.391
same,relative viability,PC-14; first compound 0.8 µM,0.355
same,relative viability,PC-14; first compound 2.53 µM,0.347
same,relative viability,PC-14; first compound 8 µM,0.353
same,relative viability,NCI-H3122; first compound 0.08 µM,1.02
same,relative viability,NCI-H3122; first compound 0.8 µM,0.977
same,relative viability,NCI-H3122; first compound 2.53 µM,0.956
same,relative viability,NCI-H3122; first compound 8 µM,1.09
same,relative viability,PC-3 [JPC-3]; first compound 0.08 µM,0.428
same,relative viability,PC-3 [JPC-3]; first compound 0.8 µM,0.473
same,relative viability,PC-3 [JPC-3]; first compound 2.53 µM,0.477
same,relative viability,PC-3 [JPC-3]; first compound 8 µM,0.406
same,relative viability,HCC-366; first compound 0.08 µM,1.08
same,relative viability,HCC-366; first compound 0.8 µM,1.11
same,relative viability,HCC-366; first compound 2.53 µM,1.21
same,relative viability,HCC-366; first compound 8 µM,1.32
same,relative viability,LC-2-ad; first compound 0.08 µM,0.96
same,relative viability,LC-2-ad; first compound 0.8 µM,1.16
same,relative viability,LC-2-ad; first compound 2.53 µM,1.07
same,relative viability,LC-2-ad; first compound 8 µM,0.983
same,relative viability,HARA; first compound 0.08 µM,0.665
same,relative viability,HARA; first compound 0.8 µM,0.961
same,relative viability,HARA; first compound 2.53 µM,0.895
same,relative viability,HARA; first compound 8 µM,0.755
same,relative viability,NCI-H1993; first compound 0.08 µM,0.845
same,relative viability,NCI-H1993; first compound 0.8 µM,0.777
same,relative viability,NCI-H1993; first compound 2.53 µM,0.803
same,relative viability,NCI-H1993; first compound 8 µM,0.834
same,relative viability,LU99A; first compound 0.08 µM,0.999
same,relative viability,LU99A; first compound 0.8 µM,0.991
same,relative viability,LU99A; first compound 2.53 µM,1.12
same,relative viability,LU99A; first compound 8 µM,0.855
same,relative viability,HCC-15; first compound 0.08 µM,0.835
same,relative viability,HCC-15; first compound 0.8 µM,0.92
same,relative viability,HCC-15; first compound 2.53 µM,0.944
same,relative viability,HCC-15; first compound 8 µM,0.795
